US7745437B2, “Compounds and compositions as protein kinase inhibitors” (IRM LLC, priority 2004, dated 2010)
pIC50: −log10 of the molar value.

Assays:
[1] = biological target: T1, PDGFRβ (Homo sapiens, UniProt P09619); assay: PDGFRβ (Cellular Assay), Ba/F3-Tel-PDGFRβ cell proliferation; assay type: cell-based; details: Ba/F3-Tel-PDGFRβ cells; read-out: IC50 for PDGFRβ
T1 construct: fused on or other part: P41212 (Transcription factor ETV6)

[2] = biological target: T2, FGFR3 (Homo sapiens, UniProt P22607); assay: FGFR3 (Cellular Assay), Ba/F3-TEL-FGFR3 cell proliferation; assay type: cell-based; design: fused on or other part: P41212 (Transcription factor ETV6); details: Ba/F3-TEL-FGFR3 cells, 48 hours; read-out: IC50 for the FGFR3 cellular assay
Procedure: Compounds of the invention are tested for their ability to inhibit transformed Ba/F3-TEL-FGFR3 cells proliferation, which is depended on FGFR3 cellular kinase activity. Ba/F3-TEL-FGFR3 are cultured up to 800,000 cells/mL in suspension, with RPMI 1640 supplemented with 10% fetal bovine serum as the culture medium. Cells are dispensed into 384-well format plate at 5000 cell/well in 50 μL culture medium. Compounds of the invention are dissolved and diluted in dimethylsufoxide (DMSO). Twelve points 1:3 serial dilutions are made into DMSO to create concentrations gradient ranging typically from 10 mM to 0.05 μM. Cells are added with 50 nL of diluted compounds and incubated for 48 hours in cell culture incubator. AlamarBlue® (TREK Diagnostic Systems), which can be used to monitor the reducing environment created by proliferating cells, are added to cells at final concentration of 10%. After additional four hours of incubation in a 37° C. cell culture incubator, fluorescence signals from reduced AlamarBlue® (Excitation at 530 nm, Emission at 580 nm) are quantified on Analyst GT (Molecular Devices Corp.). IC50 values are calculated by linear regression analysis of the percentage inhibition of each compound at 12 concentrations.
Target sequence in this assay (P22607 472-761 limits assumed, change not shown): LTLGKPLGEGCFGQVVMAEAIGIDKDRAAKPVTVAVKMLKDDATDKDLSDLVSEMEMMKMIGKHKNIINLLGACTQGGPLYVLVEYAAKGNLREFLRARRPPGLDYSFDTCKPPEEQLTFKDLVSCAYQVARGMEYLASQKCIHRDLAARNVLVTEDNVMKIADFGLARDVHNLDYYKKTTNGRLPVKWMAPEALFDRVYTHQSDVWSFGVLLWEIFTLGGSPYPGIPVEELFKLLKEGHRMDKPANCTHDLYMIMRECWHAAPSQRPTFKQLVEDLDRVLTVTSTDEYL

[3] = biological target: T3, FLT3 (Homo sapiens, UniProt P36888, cells depend on it, form not given); assay: FLT3 (Cellular Assay), Ba/F3-FLT3-ITD cell proliferation; assay type: cell-based; details: read-out: IC50 for FLT3
T3 sequence (P36888 1-993): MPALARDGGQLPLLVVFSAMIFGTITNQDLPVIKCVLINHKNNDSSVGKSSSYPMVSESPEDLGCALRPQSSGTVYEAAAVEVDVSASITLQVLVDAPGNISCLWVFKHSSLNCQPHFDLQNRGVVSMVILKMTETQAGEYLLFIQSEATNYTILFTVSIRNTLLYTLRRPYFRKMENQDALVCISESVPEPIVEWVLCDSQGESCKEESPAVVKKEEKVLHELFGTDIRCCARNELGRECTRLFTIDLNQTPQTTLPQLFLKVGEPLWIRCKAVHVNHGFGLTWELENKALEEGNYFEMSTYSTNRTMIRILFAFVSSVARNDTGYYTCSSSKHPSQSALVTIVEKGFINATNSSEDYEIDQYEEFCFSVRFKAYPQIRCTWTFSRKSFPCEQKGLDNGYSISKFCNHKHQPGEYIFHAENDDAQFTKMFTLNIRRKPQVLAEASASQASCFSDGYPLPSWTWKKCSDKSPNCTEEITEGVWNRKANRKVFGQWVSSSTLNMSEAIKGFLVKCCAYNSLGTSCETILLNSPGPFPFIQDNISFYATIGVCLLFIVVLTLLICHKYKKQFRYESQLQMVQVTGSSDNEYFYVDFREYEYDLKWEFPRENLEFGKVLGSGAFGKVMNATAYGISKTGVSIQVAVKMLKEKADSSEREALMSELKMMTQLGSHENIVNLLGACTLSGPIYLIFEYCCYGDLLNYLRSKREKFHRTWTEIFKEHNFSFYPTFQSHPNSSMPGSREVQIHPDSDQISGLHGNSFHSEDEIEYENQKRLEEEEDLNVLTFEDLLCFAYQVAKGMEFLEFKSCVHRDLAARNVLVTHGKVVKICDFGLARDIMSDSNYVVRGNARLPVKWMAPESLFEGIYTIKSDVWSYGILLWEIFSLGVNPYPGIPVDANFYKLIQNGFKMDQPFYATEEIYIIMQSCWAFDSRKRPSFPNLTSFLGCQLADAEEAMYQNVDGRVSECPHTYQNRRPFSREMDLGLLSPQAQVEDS

[4] = biological target: T2, FGFR3; assay: FGFR3 (Enzymatic Assay), HTRF; assay type: biochemical; design: purchased Upstate; details: purified FGFR3, 3 μM ATP; read-out: IC50 for the FGFR3 enzyme assay
Procedure: Kinase activity assay with purified FGFR3 (Upstate) is carried out in a final volume of 10 μL containing 0.25 μg/mL of enzyme in kinase buffer (30 mM Tris-HCl pH7.5, 15 mM MgCl2, 4.5 mM MnCl2, 15 μM Na3VO4 and 50 μg/mL BSA), and substrates (5 μg/mL biotin-poly-EY (Glu, Tyr) (CIS-US, Inc.) and 3 μM ATP). Two solutions are made: the first solution of 5 μl contains the FGFR3 enzyme in kinase buffer was first dispensed into 384-format ProxiPlate® (Perkin-Elmer) followed by adding 50 nL of compounds dissolved in DMSO, then 5 μl of second solution contains the substrate (poly-EY) and ATP in kinase buffer was added to each wells. The reactions are incubated at room temperature for one hour, stopped by adding 10 μL of HTRF detection mixture, which contains 30 mM Tris-HCl pH7.5, 0.5 M KF, 50 mM ETDA, 0.2 mg/mL BSA, 15 μg/mL streptavidin-XL665 (CIS-US, Inc.) and 150 ng/mL cryptate conjugated anti-phosphotyrosine antibody (CIS-US, Inc.). After one hour of room temperature incubation to allow for streptavidin-biotin interaction, time resolved florescent signals are read on Analyst GT (Molecular Devices Corp.). IC50 values are calculated by […] analysis of the percentage inhibition of each compound at 12 concentrations (1:3 dilution from 50 μM to 0.28 nM).
Target sequence in this assay (P22607 23-806): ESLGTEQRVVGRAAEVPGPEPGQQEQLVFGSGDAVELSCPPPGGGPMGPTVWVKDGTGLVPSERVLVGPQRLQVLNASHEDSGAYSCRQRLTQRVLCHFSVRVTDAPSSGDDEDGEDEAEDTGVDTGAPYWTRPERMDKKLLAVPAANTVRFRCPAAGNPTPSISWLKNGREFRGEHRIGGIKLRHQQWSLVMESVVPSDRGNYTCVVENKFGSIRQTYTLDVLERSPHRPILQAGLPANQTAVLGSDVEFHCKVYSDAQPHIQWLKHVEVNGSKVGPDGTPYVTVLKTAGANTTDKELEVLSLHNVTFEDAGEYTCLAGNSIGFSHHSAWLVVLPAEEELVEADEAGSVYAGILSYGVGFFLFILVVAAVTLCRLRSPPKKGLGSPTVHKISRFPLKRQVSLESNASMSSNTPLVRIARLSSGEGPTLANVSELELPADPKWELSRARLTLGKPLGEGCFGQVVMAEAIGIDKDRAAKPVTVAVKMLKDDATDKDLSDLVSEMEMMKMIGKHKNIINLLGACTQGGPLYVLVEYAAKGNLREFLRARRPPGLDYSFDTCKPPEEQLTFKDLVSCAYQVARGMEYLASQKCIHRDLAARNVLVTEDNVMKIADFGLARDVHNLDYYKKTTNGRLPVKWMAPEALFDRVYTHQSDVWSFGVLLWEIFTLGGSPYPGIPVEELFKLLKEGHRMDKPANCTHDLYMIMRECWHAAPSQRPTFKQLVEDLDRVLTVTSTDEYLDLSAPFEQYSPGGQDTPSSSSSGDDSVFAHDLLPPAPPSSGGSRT

[5] = biological target: T4, G250E Bcr-abl (Homo sapiens, UniProt P00519, G250E); assay: Proliferation of Ba/F3 cells expressing mutant Bcr-abl G250E; assay type: cell-based
T4 construct: expressed in transfected cells; host or cells: Ba/F3; the other entry of the earlier key: BCR (P11274, Breakpoint cluster region protein)
T4 sequence (P00519 229-512 G250E limits assumed): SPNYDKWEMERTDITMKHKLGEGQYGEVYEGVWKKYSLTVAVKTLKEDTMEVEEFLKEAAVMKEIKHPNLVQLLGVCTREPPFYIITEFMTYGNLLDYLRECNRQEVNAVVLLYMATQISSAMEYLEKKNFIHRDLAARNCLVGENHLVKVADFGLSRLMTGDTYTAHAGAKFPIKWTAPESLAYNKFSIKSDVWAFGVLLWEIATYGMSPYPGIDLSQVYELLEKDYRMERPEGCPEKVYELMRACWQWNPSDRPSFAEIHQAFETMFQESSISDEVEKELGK
Procedure: (§1) 32D-p210 cells are plated into 96 well TC plates at a density of 15,000 cells per well. 50 μL of two fold serial dilutions of the test compound (Cmax is 40 μM) are added to each well (STI571 is included as a positive control). After incubating the cells for 48 hours at 37° C., 5% CO2, 15 μL of MTT (Promega) is added to each well and the cells are incubated for an additional 5 hours. The optical density at 570 nm is quantified spectrophotometrically and IC50 values, the concentration of compound required for 50% inhibition, determined from a dose response curve.
(§2) Compounds of the invention are tested for their antiproliferative effect on Ba/F3 cells expressing either wild type or the mutant forms of BCR-Abl (G250E, E255V, T3151, F317L, M351T) that confers resistance or diminished sensitivity to STI571. The antiproliferative effect of these compounds on the mutant-BCR-Abl expressing cells and on the non transformed cells were tested at 10, 3.3, 1.1 and 0.37 μM as described above (in media lacking IL3). The IC50 values of the compounds lacking toxicity on the untransformed cells were determined from the dose response curves obtained as describe above.

[6] = biological target: T5, wild type Bcr-abl (Homo sapiens, UniProt P00519); assay: Proliferation of Ba/F3 cells expressing wild type Bcr-abl; assay type: cell-based
T5 construct: expressed in transfected cells; host or cells: Ba/F3; the other entry of the earlier key: BCR (P11274, Breakpoint cluster region protein)
Procedure: as §1, §2

[7] = biological target: T6, F317L Bcr-abl (Homo sapiens, UniProt P00519, F317L); assay: Proliferation of Ba/F3 cells expressing mutant Bcr-abl F317L; assay type: cell-based
T6 construct: expressed in transfected cells; host or cells: Ba/F3; the other entry of the earlier key: BCR (P11274, Breakpoint cluster region protein)
Procedure: as §1, §2

[8] = biological target: T7, E255V Bcr-abl (Homo sapiens, UniProt P00519, E255V); assay: Proliferation of Ba/F3 cells expressing mutant Bcr-abl E255V; assay type: cell-based
T7 construct: expressed in transfected cells; host or cells: Ba/F3; the other entry of the earlier key: BCR (P11274, Breakpoint cluster region protein)
Procedure: as §1, §2

[9] = biological target: T8, M351T Bcr-abl (Homo sapiens, UniProt P00519, M351T); assay: Proliferation of Ba/F3 cells expressing mutant Bcr-abl M351T; assay type: cell-based
T8 construct: expressed in transfected cells; host or cells: Ba/F3; the other entry of the earlier key: BCR (P11274, Breakpoint cluster region protein)
T8 sequence (P00519 242-493 M351T limits assumed): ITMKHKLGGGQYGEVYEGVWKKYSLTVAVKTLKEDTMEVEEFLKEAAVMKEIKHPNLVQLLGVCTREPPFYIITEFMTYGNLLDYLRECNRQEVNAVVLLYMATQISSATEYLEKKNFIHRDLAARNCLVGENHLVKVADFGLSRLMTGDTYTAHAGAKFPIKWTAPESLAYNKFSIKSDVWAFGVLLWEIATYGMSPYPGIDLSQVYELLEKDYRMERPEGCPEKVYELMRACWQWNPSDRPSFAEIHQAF
Procedure: as §1, §2

T1 sequence (P09619 600-962 limits assumed, change not shown): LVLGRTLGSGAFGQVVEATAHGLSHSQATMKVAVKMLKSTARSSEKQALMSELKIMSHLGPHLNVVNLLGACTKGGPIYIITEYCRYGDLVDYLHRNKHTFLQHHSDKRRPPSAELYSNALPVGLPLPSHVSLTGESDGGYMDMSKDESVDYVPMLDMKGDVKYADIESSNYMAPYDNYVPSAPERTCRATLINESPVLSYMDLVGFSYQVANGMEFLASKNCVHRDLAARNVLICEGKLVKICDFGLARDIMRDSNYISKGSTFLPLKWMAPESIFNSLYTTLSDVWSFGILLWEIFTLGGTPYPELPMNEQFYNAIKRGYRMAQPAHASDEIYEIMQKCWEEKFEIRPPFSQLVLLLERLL

Which GI50 [1] does the source give for Cc1ccc(NC(=O)c2ccc(CN3CCN(C)CC3)c(C(F)(F)F)c2)cc1Nc1nccn1-c1cc(NC2CC2)ncn1 [Compound 26, N-{3-[1-(6-Cyclopropylamino-pyrimidin-4-yl)-1H-imidazol-2-ylamino]-4-methyl-phenyl}-4-(4-methyl-piperazin-1-ylmethyl)-3-trifluoromethyl-benzamide] here?
Its GI50 is 2 nM.

What about the GI50 [2] of the same molecule?
The GI50 was 37 nM.

What about the GI50 [3] of the same molecule?
The GI50 was 89 nM.

What about the pIC50 [4] of the same molecule?
The pIC50 was 7.19.

Which results are given for Cc1cn(-c2cc(C(=O)Nc3ccc(C)c(Nc4nccn4-c4cc(NC5CC5)ncn4)c3)cc(C(F)(F)F)c2)cn1 [Compound 27, N-{3-[1-(6-cyclopropylamino-pyrimidin-4-yl)-1H-imidazol-2-ylamino]-4-methyl-phenyl}-3-(4-methyl-imidazol-1-yl)-5-trifluoromethyl-benzamide]?
pIC50 [5]: 7.70; pIC50 [6]: > 9.30; pIC50 [7]: > 9.30; pIC50 [8]: 7.44; pIC50 [9]: > 9.30

How did the GI50 [1] turn out when CCN1CCN(Cc2ccc(C(=O)Nc3ccc(C)c(Nc4nccn4-c4cc(NC5CC5)ncn4)c3)cc2C(F)(F)F)CC1 [Compound 25, N-{3-[1-(6-Cyclopropylamino-pyrimidin-4-yl)-1H-imidazol-2-ylamino]-4-methyl-phenyl}-4-(4-ethyl-piperazin-1-ylmethyl)-3-trifluoromethyl-benzamide] was run?
The GI50 was 2 nM.

What about the GI50 [2] of the same molecule?
Its GI50 is 34 nM.

And the GI50 [3]?
The GI50 was 149 nM.

And the pIC50 [4]?
The pIC50 was 6.89.
